Measured values from patent US9000022B2 (Exelixis Patent Company LLC, priority 2005, dated 2015).

System: LXRα and/or LXRβ
Assay: Co-transfection assay (LXRE luciferase reporter, CV-1 cells)
Type: cell-based, human
Conditions: tested as described in Example 33; IC50 or EC50 for LXRα and/or LXRβ, isoform not specified; read-out: activity (IC50 or EC50 for LXR)
How it was run: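 CV-1 cells transiently co-transfected with full-length human LXRα or LXRβ plus RXRα, an LXRE×1-Tk-luciferase reporter and a β-galactosidase control. Compounds incubated 20 h at 37 °C (≤1% DMSO; screen at 10 μM final); luciferase read after lysis. EC50/IC50 from 8-point half-log curves (4 wells per point, ≥3 experiments); efficacy relative to a reference agonist high control and DMSO.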

Structure (SMILES) | IC50 or EC50 (potency, activation or inhibition)
Cc1cc(-c2ccc(CO)c(S(C)(=O)=O)c2)ccc1-n1cc(C(C)(C)O)nc1-c1ccccc1C(F)(F)F [Example 171] | < 1 µM
Cc1cc(-c2ccc(CO)c(S(C)(=O)=O)c2)ccc1-n1cc(C(C)(C)O)nc1-c1c(F)cccc1Cl [Example 172, 2-(2-(2-chloro-6-fluorophenyl)-1-(4′-(hydroxymethyl)-3-methyl-3′-(methylsulfonyl)biphenyl-4-yl)-1H-imidazol-4-yl)propan-2-ol] | < 1 µM
Cc1cc(-c2ccc(CO)c(S(C)(=O)=O)c2)ccc1-n1cc(C(C)(C)O)nc1-c1cccc(F)c1Cl [Example 173, 2-(2-(2-chloro-3-fluorophenyl)-1-(4′-(hydroxymethyl)-3-methyl-3′-(methylsulfonyl)biphenyl-4-yl)-1H-imidazol-4-yl)propan-2-ol] | < 1 µM
Cc1cc(-c2ccc(CO)c(S(C)(=O)=O)c2)ccc1-n1cc(C(C)(C)O)nc1-c1c(Cl)cccc1Cl [Example 174, 2-(2-(2,6-dichlorophenyl)-1-(4′-(hydroxymethyl)-3-methyl-3′-(methylsulfonyl)biphenyl-4-yl)-1H-imidazol-4-yl)propan-2-ol] | < 1 µM
Cc1cc(-c2ccc(CO)c(S(C)(=O)=O)c2)ccc1-n1cc(C(C)(C)O)nc1-c1cccc(Cl)c1C [Example 175, 2-(2-(3-chloro-2-methylphenyl)-1-(4′-(hydroxymethyl)-3-methyl-3′-(methylsulfonyl)biphenyl-4-yl)-1H-imidazol-4-yl)propan-2-ol] | < 1 µM
Cc1cc(-c2ccc(CO)c(S(C)(=O)=O)c2)ccc1-n1cc(C(C)(C)O)nc1-c1cccc(Cl)c1Cl [Example 176, 2-(2-(2,3-dichlorophenyl)-1-(4′-(hydroxymethyl)-3-methyl-3′-(methylsulfonyl)biphenyl-4-yl)-1H-imidazol-4-yl)propan-2-ol] | < 1 µM
Cc1cc(-c2ccc(CO)c(S(C)(=O)=O)c2)ccc1-n1cc(C(C)(C)O)nc1-c1c(C)cccc1Cl [Example 177] | < 1 µM
Cc1cc(-c2ccc(CO)c(S(C)(=O)=O)c2)ccc1-n1cc(C(C)(C)O)nc1-c1c(F)cccc1F [Example 178, 2-(2-(2,6-difluorophenyl)-1-(4′-(hydroxymethyl)-3-methyl-3′-(methylsulfonyl)biphenyl-4-yl)-1H-imidazol-4-yl)propan-2-ol] | < 1 µM
Cc1cc(-c2cccc(S(C)(=O)=O)c2)ccc1-n1cc(C(C)(C)O)nc1-c1cccc(Cl)c1Cl [Example 179, 2-(2-(2,3-dichlorophenyl)-1-(3-methyl-3′-(methylsulfonyl)biphenyl-4-yl)-1H-imidazol-4-yl)propan-2-ol] | < 1 µM
CCS(=O)(=O)c1cccc(-c2ccc(-n3cc(C(C)(C)O)nc3-c3cccc(Cl)c3Cl)c(C)c2)c1 [Example 180, 2-(2-(2,3-dichlorophenyl)-1-(3′-(ethylsulfonyl)-3-methylbiphenyl-4-yl)-1H-imidazol-4-yl)propan-2-ol] | < 1 µM
Cc1cc(-c2cccc(S(C)(=O)=O)c2)ccc1-n1cc(C(C)(C)O)nc1-c1c(Cl)cccc1Cl [Example 181, 2-(2-(2,6-dichlorophenyl)-1-(3-methyl-3′-(methylsulfonyl)biphenyl-4-yl)-1H-imidazol-4-yl)propan-2-ol] | < 1 µM
CCS(=O)(=O)c1cccc(-c2ccc(-n3cc(C(C)(C)O)nc3-c3c(Cl)cccc3Cl)c(C)c2)c1 [Example 182, 2-(2-(2,6-dichlorophenyl)-1-(3′-(ethylsulfonyl)-3-methylbiphenyl-4-yl)-1H-imidazol-4-yl)propan-2-ol] | < 1 µM
Cc1cc(-c2cccc(S(C)(=O)=O)c2)ccc1-n1cc(C(C)(C)O)nc1-c1ccccc1C(F)(F)F [Example 183, 2-(1-(3-methyl-3′-(methyl-sulfonyl)biphenyl-4-yl)-2-(2-(trifluoromethyl)phenyl)-1H-imidazol-4-yl)propan-2-ol] | < 1 µM
CCS(=O)(=O)c1cccc(-c2ccc(-n3cc(C(C)(C)O)nc3-c3ccccc3C(F)(F)F)c(C)c2)c1 [Example 184, 2-(1-(3′-(ethylsulfonyl)-3-methyl-biphenyl-4-yl)-2-(2-(trifluoro-methyl)phenyl)-1H-imidazol-4-yl)propan-2-ol] | < 1 µM
Cc1cc(-c2cccc(S(C)(=O)=O)c2)ccc1-n1cc(C(C)(C)O)nc1-c1cccc(F)c1Cl [Example 185, 2-(2-(2-chloro-3-fluorophenyl)-1-(3-methyl-3′-(methylsulfonyl)biphenyl-4-yl)-1H-imidazol-4-yl)propan-2-ol] | < 1 µM
CCS(=O)(=O)c1cccc(-c2ccc(-n3cc(C(C)(C)O)nc3-c3cccc(F)c3Cl)c(C)c2)c1 [Example 186, 2-(2-(2-chloro-3-fluorophenyl)-1-(3′-(ethylsulfonyl)-3-methylbiphenyl-4-yl)-1H-imidazol-4-yl)propan-2-ol] | < 1 µM

Structure (SMILES) | IC50 or EC50 (potency, activation or inhibition)
Cc1cc(-c2cccc(S(C)(=O)=O)c2)ccc1-n1cc(C(C)(C)O)nc1-c1c(F)cccc1Cl [Example 187, 2-(2-(2-chloro-6-fluorophenyl)-1-(3-methyl-3′-(methylsulfonyl)biphenyl-4-yl)-1H-imidazol-4-yl)propan-2-ol] | < 1 µM
CCS(=O)(=O)c1cccc(-c2ccc(-n3cc(C(C)(C)O)nc3-c3c(F)cccc3Cl)c(C)c2)c1 [Example 188, 2-(2-(2-chloro-6-fluorophenyl)-1-(3′-(ethylsulfonyl)-3-methylbiphenyl-4-yl)-1H-imidazol-4-yl)propan-2-ol] | < 1 µM
Cc1cc(-c2cccc(S(C)(=O)=O)c2)ccc1-n1cc(C(C)(C)O)nc1-c1cccc(Cl)c1C [Example 189, 2-(2-(3-chloro-2-methylphenyl)-1-(3-methyl-3′-(methylsulfonyl)biphenyl-4-yl)-1H-imidazol-4-yl)propan-2-ol] | < 1 µM
CCS(=O)(=O)c1cccc(-c2ccc(-n3cc(C(C)(C)O)nc3-c3cccc(Cl)c3C)c(C)c2)c1 [Example 190, 2-(2-(3-chloro-2-methylphenyl)-1-(3′-(ethylsulfonyl)-3-methylbiphenyl-4-yl)-1H-imidazol-4-yl)propan-2-ol] | < 1 µM
Cc1cc(-c2cccc(S(C)(=O)=O)c2)ccc1-n1cc(C(C)(C)O)nc1-c1c(C)cccc1Cl [Example 191, 2-(2-(2-chloro-6-methylphenyl)-1-(3-methyl-3′-(methylsulfonyl)biphenyl-4-yl)-1H-imidazol-4-yl)propan-2-ol] | < 1 µM
CCS(=O)(=O)c1cccc(-c2ccc(-n3cc(C(C)(C)O)nc3-c3c(C)cccc3Cl)c(C)c2)c1 [Example 192, 2-(2-(2-chloro-6-methylphenyl)-1-(3′-(ethylsulfonyl)-3-methylbiphenyl-4-yl)-1H-imidazol-4-yl)propan-2-ol] | < 1 µM
Cc1cc(-c2cccc(S(C)(=O)=O)c2)ccc1-n1cc(C(C)(C)O)nc1-c1c(F)cccc1F [Example 193, 2-(2-(2,6-difluorophenyl)-1-(3-methyl-3′-(methylsulfonyl)biphenyl-4-yl)-1H-imidazol-4-yl)propan-2-ol] | < 1 µM
CCS(=O)(=O)c1cccc(-c2ccc(-n3cc(C(C)(C)O)nc3-c3c(F)cccc3F)c(C)c2)c1 [Example 194, 2-(2-(2,6-difluorophenyl)-1-(3′-(ethylsulfonyl)-3-methylbiphenyl-4-yl)-1H-imidazol-4-yl)propan-2-ol] | < 1 µM
Cc1cc(-c2cccc(S(C)(=O)=O)c2)ccc1-n1cc(C(C)(C)O)nc1-c1ccccc1C(C)C [Example 195, 2-(2-(2-isopropylphenyl)-1-(3-methyl-3′-(methylsulfonyl)biphenyl-4-yl)-1H-imidazol-4-yl)propan-2-ol] | < 1 µM
CCS(=O)(=O)c1cccc(-c2ccc(-n3cc(C(C)(C)O)nc3-c3ccccc3C(C)C)c(C)c2)c1 [Example 196, 2-(1-(3′-(ethylsulfonyl)-3-methyl-biphenyl-4-yl)-2-(2-isopropyl-phenyl)-1H-imidazol-4-yl)propan-2-ol] | < 1 µM
Cc1cc(-c2cccc(S(C)(=O)=O)c2)ccc1-c1nc(C(C)(C)O)cn1-c1c(Cl)cccc1Cl [Example 197, 2-(1-(2,6-dichlorophenyl)-2-(3-methyl-3′-(methylsulfonyl)biphenyl-4-yl)-1H-imidazol-4-yl)propan-2-ol] | < 1 µM
CC(C)(O)c1cn(-c2ccc(-c3cccc(S(C)(=O)=O)c3)cc2)c(-c2ccccc2C(F)(F)F)n1 [Example 198, 2-{1-[3′-(methylsulfonyl)biphenyl-4-yl]-2-[2-(trifluoromethyl)phenyl]-1H-imidazol-4-yl}propan-2-ol] | < 1 µM
CC(C)(O)c1cn(-c2ccc(-c3ccc(S(C)(=O)=O)cc3)cc2)c(-c2ccccc2C(F)(F)F)n1 [Example 199, 2-{1-[4′-(methylsulfonyl)biphenyl-4-yl]-2-[2-(trifluoromethyl)phenyl]-1H-imidazol-4-yl}propan-2-ol] | 1 to 10 µM
CCS(=O)(=O)c1cccc(-c2ccc(-n3cc(C(C)(C)O)nc3-c3ccccc3C(F)(F)F)cc2)c1 [Example 200, 2-{1-[3′-(ethylsulfonyl)biphenyl-4-yl]-2-[2-(trifluoromethyl)phenyl]-1H-imidazol-4-yl}propan-2-ol] | < 1 µM
CC(C)(O)c1cn(-c2cccc(-c3cccc(S(C)(=O)=O)c3)c2)c(-c2ccccc2C(F)(F)F)n1 [Example 201, 2-{1-[3′-(methylsulfonyl)biphenyl-3-yl]-2-[2-(trifluoromethyl)phenyl]-1H-imidazol-4-yl}propan-2-ol] | < 1 µM
